The values that follow come from ChEMBL document CHEMBL1149960, “Synthesis, insecticidal and anti-acetylcholinesterase activity of a new class of heterocyclic methanesulfonates” (Bioorg Med Chem Lett, 1996).

One test concerns the target T1, Acetylcholinesterase (Bos taurus, UniProt P23795).
T1 sequence (P23795 whole entry): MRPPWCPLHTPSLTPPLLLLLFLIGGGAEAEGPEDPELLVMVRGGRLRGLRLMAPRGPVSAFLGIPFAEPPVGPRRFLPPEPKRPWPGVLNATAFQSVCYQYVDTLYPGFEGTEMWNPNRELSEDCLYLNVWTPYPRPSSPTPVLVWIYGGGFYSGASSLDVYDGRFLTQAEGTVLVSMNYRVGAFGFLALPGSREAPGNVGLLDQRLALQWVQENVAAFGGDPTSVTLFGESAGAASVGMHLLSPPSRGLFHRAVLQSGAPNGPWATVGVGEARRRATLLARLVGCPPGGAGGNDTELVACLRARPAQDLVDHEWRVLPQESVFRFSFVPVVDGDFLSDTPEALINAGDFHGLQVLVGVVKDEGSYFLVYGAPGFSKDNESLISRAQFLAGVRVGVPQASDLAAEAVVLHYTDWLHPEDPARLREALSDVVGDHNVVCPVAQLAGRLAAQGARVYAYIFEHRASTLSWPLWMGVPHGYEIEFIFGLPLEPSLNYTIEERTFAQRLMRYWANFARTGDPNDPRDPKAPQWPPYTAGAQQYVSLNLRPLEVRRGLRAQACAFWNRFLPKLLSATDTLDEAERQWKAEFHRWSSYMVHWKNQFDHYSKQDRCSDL

For another test, the system named is Lucilia cuprina. Nature of the test: whole plant or invertebrate.
Test [1] concerns Diabrotica undecimpunctata. As to the kind of experiment: whole plant or invertebrate. The settings on record: in Zea mays, read-out: LD50.
Description: Insecticidal activity against southern Corn rootworm (SCRW)

Values after ≈ are worked out from the molar mass of the structure shown.

Description for Acetylcholinesterase: Inhibition of bovine erythrocyte acetylcholinesterase (AChE)
Description for Lucilia cuprina: Insecticidal activity against blowfly Lucilia cuprina

A word on the IC50: it is the concentration needed to halve the response being measured. One may read the LD50 as the dose expected to kill half of the subjects tested. Low readings indicate a more toxic substance, high ones a less toxic substance. `CC1(C)CC(OS(C)(=O)=O)=NN1C(=O)Nc1ccccc1` had an IC50 against Acetylcholinesterase of over 1000 µM. In the test with Lucilia cuprina, the 50% lethal dose (LD50) was over 100 mg/kg. The LC50 in test [1] is over 1000 µg/mL.
The matching figures for `CC(C)NC(=O)N1N=C(OS(C)(=O)=O)CC1C` (stereo unspecified): 28.6 µM, 21 mg/kg and under 0.5 µg/mL.
In the same order, the values of `CC(C)NS(=O)(=O)N1N=C(OS(C)(=O)=O)CC1c1ccccc1` (stereo unspecified) are over 1000 µM, over 100 mg/kg and over 1000 µg/mL.
The matching figures for `CC1(C)CC(OS(C)(=O)=O)=NN1C(=O)NC1CCCCC1`: 284 µM, 2.64 mg/kg and over 1000 µg/mL.
Turning to `CC(C)NS(=O)(=O)N1N=C(OS(C)(=O)=O)CC1(C)C`, the IC50 on Acetylcholinesterase turned out to be 1270 µM. In the test on Lucilia cuprina, this molecule had an LD50 of 37 mg/kg. Further, the LC50 in test [1] stood at 60 µg/mL (≈ 191 µM).
In the same order, the values of `CC1(C)CC(OS(C)(=O)=O)=NN1S(C)(=O)=O` are over 1000 µM, over 1000 mg/kg and over 1000 µg/mL.
At Acetylcholinesterase, `CC(C)C(=O)N1N=C(OS(C)(=O)=O)CC1(C)C` gave an IC50 of over 1000 µM. The same molecule had an LD50 in the test on Lucilia cuprina of over 100 mg/kg. In test [1], the LC50 is 120 µg/mL (≈ 457 µM).
In the same order, the values of `CCCS(=O)(=O)N1N=C(OS(C)(=O)=O)CC1c1ccccc1` (stereo unspecified) are 62.5 µM, over 100 mg/kg and over 1000 µg/mL.
As to `CC(C)(C)NC(=O)N1N=C(OS(C)(=O)=O)CC1(C)C`, the IC50 against Acetylcholinesterase is over 1000 µM. Further, in the test on Lucilia cuprina, the LD50 was found to be 75.9 mg/kg. In test [1], the LC50 came to 12 µg/mL (≈ 41.2 µM).
In the same order, the values of `CCOC(=O)N1N=C(OS(C)(=O)=O)CC1(C)C` are over 1000 µM, over 100 mg/kg and over 1000 µg/mL.
On to `CC1(C)CC(OS(C)(=O)=O)=NN1C(N)=O`, for which the IC50 on Acetylcholinesterase was over 1000 µM. This molecule also gave an LD50 in the test with Lucilia cuprina of over 1000 mg/kg. Also, the LC50 in test [1] was over 1000 µg/mL.
The matching figures for `CN(C)S(=O)(=O)N1N=C(OS(C)(=O)=O)CC1c1ccccc1` (stereo unspecified): over 1000 µM, over 100 mg/kg and over 1000 µg/mL.
The matching figures for `CC(C)NC(=O)N1N=C(OS(C)(=O)=O)CC1C(C)C` (stereo unspecified): 602 µM, 25.1 mg/kg and 5 µg/mL (≈ 17.2 µM).
In the same order, the values of `CC(C)CS(=O)(=O)c1cccc(OS(C)(=O)=O)n1` are 60.5 µM, over 100 mg/kg and under 0.5 µg/mL.
Consider `CC(C)NC(=O)N1N=C(OS(C)(=O)=O)CC1c1ccccc1` (stereo unspecified), for which, at Acetylcholinesterase, it took 40.6 µM to reach half-maximal inhibition (IC50). The molecule further showed a median lethal dose (LD50) in the test with Lucilia cuprina of 34.4 mg/kg. For the same molecule, in test [1], the LC50 was under 0.5 µg/mL.
With `CCCNS(=O)(=O)N1N=C(OS(C)(=O)=O)CC1(C)C`, the IC50 against Acetylcholinesterase is over 1000 µM. This molecule also yielded an LD50 in the test with Lucilia cuprina of 40.9 mg/kg. Also, the LC50 in test [1] was 55 µg/mL (≈ 175 µM).
The matching figures for `C=CCNC(=O)N1N=C(OS(C)(=O)=O)CC1(C)C`: 149 µM, 6.84 mg/kg and 1.6 µg/mL (≈ 5.81 µM).
In the same order, the values of `CC(C)NC(=O)N1N=C(OS(C)(=O)=O)CC1(C)C` are 714 µM, 7.14 mg/kg and 1 µg/mL (≈ 3.61 µM).
`COP(=O)(OC)C(O)C(Cl)(Cl)Cl` (stereo unspecified) [TRICHLORFON] yielded an IC50 on Acetylcholinesterase of over 1000 µM. For the same molecule, in the test with Lucilia cuprina, the LD50 was 21.8 mg/kg.
